Test results as given in paper PMC5218480 (PLoS ONE, 2017).

Tested on: MV-4-11 cells
Test: Gene expression microarray analysis (Affymetrix PrimeView) and GSEA
Assay type: cell-based, human
Set-up: RFU PODN (11730768_x_at) / Fold change /veh PODN (11730768_x_at) / RFU LINC00158 (11744669_a_at) / Fold change /veh LINC00158 (11744669_a_at) / RFU DUSP10 (11751237_a_at) / Fold change /veh DUSP10 (11751237_a_at) / RFU ID3 (11757404_x_at) / Fold change /veh ID3 (11757404_x_at) / RFU PLEKHG5 (11737974_s_at) / Fold change /veh PLEKHG5 (11737974_s_at) / RFU LRRC4B (11730491_at) / Fold change /veh LRRC4B (11730491_at) / RFU GIMAP4 (11747438_a_at) / Fold change /veh GIMAP4 (11747438_a_at) / RFU KRT8 (11758183_x_at) / Fold change /veh KRT8 (11758183_x_at) / RFU CNN1 (11734310_a_at) / Fold change /veh CNN1 (11734310_a_at) / RFU VPS37D (11726825_at) / Fold change /veh VPS37D (11726825_at) / RFU C10orf10 (11716522_x_at) / Fold change /veh C10orf10 (11716522_x_at) / RFU KIR2DL2 /// KIR2DL4 /// KIR2DL5A /// KIR2DL5B /// KIR2DS1 /// KIR2DS2 /// KIR2DS3 /// KIR2DS4 /// KIR3DL3 /// KIR3DL3 /// KIR3DS1 (11738374_at) / Fold change /veh KIR2DL2 /// KIR2DL4 /// KIR2DL5A /// KIR2DL5B /// KIR2DS1 /// KIR2DS2 /// KIR2DS3 /// KIR2DS4 /// KIR3DL3 /// KIR3DL3 /// KIR3DS1 (11738374_at) / RFU C1QL1 (11718748_at) / Fold change /veh C1QL1 (11718748_at) / RFU TMPRSS4 (11747572_a_at) / Fold change /veh TMPRSS4 (11747572_a_at) / RFU HAMP (11756126_x_at) / Fold change /veh HAMP (11756126_x_at) / RFU RNFT2 (11725882_a_at) / Fold change /veh RNFT2 (11725882_a_at) / RFU NR4A2 (11747474_a_at) / Fold change /veh NR4A2 (11747474_a_at) / RFU ABCC12 (11746883_a_at) / Fold change /veh ABCC12 (11746883_a_at) / RFU TMEM136 (11760407_x_at) / Fold change /veh TMEM136 (11760407_x_at) / RFU CLDN22 /// WWC2 (11732394_at) / Fold change /veh CLDN22 /// WWC2 (11732394_at) / RFU HLA-DPB1 (11760878_x_at) / Fold change /veh HLA-DPB1 (11760878_x_at) / RFU SPINT1 (11716480_a_at) / Fold change /veh SPINT1 (11716480_a_at) / RFU GAP43 (11754022_s_at) / Fold change /veh GAP43 (11754022_s_at) / RFU A4GNT (11735810_at) / Fold change /veh A4GNT (11735810_at) / RFU PRB3 (11715151_x_at) / Fold change /veh PRB3 (11715151_x_at) / RFU TUBB4B (11761932_at) / Fold change /veh TUBB4B (11761932_at) / RFU CAPN14 (11732068_a_at) / Fold change /veh CAPN14 (11732068_a_at) / RFU TMCC2 (11721928_a_at) / Fold change /veh TMCC2 (11721928_a_at) / RFU IRGQ (11745062_a_at) / Fold change /veh IRGQ (11745062_a_at) / RFU FAM174B (11720279_a_at) / Fold change /veh FAM174B (11720279_a_at) / RFU TMPRSS4 (11748680_a_at) / Fold change /veh TMPRSS4 (11748680_a_at) / RFU FAM212B (11763350_a_at) / Fold change /veh FAM212B (11763350_a_at) / RFU PLEKHG5 (11743358_a_at) / Fold change /veh PLEKHG5 (11743358_a_at) / RFU ZSCAN30 (11745921_a_at) / Fold change /veh ZSCAN30 (11745921_a_at) / RFU CMKLR1 (11741424_a_at) / Fold change /veh CMKLR1 (11741424_a_at) / RFU LOC101060620 /// MAPK8IP1 (11723275_at) / Fold change /veh LOC101060620 /// MAPK8IP1 (11723275_at) / RFU SPTSSB (11747773_x_at) / Fold change /veh SPTSSB (11747773_x_at) / RFU PRSS12 (11739890_at) / Fold change /veh PRSS12 (11739890_at) / RFU BIN1 (11741810_x_at) / Fold change /veh BIN1 (11741810_x_at) / RFU WNT11 (11732464_a_at) / Fold change /veh WNT11 (11732464_a_at) / RFU C10orf10 (11716521_a_at) / Fold change /veh C10orf10 (11716521_a_at) / RFU C5orf56 (11738089_at) / Fold change /veh C5orf56 (11738089_at) / RFU CYB561 (11721691_x_at) / Fold change /veh CYB561 (11721691_x_at) / RFU ANKRD19P (11752326_a_at) / Fold change /veh ANKRD19P (11752326_a_at) / RFU OR2T12 /// OR2T33 /// OR2T8 (11738714_s_at) / Fold change /veh OR2T12 /// OR2T33 /// OR2T8 (11738714_s_at) / RFU VCAN (11748164_a_at) / Fold change /veh VCAN (11748164_a_at) / RFU JSRP1 (11732532_at) / Fold change /veh JSRP1 (11732532_at) / RFU KRTAP10-11 (11738290_x_at) / Fold change /veh KRTAP10-11 (11738290_x_at) / RFU MYO3A (11730013_a_at) / Fold change /veh MYO3A (11730013_a_at) / RFU EBF3 (11725865_a_at) / Fold change /veh EBF3 (11725865_a_at) / RFU CAMK2N1 (11719241_x_at) / Fold change /veh CAMK2N1 (11719241_x_at) / RFU C5orf56 (11738088_a_at) / Fold change /veh C5orf56 (11738088_a_at) / RFU OLFML3 (11715873_a_at) / Fold change /veh OLFML3 (11715873_a_at) / RFU LOC100653217 /// NTM (11731650_a_at) / Fold change /veh LOC100653217 /// NTM (11731650_a_at) / RFU MAPK11 (11762145_a_at) / Fold change /veh MAPK11 (11762145_a_at) / RFU FIZ1 (11724087_x_at) / Fold change /veh FIZ1 (11724087_x_at) / RFU OASL (11726364_x_at) / Fold change /veh OASL (11726364_x_at) / RFU SOX15 (11748057_x_at) / Fold change /veh SOX15 (11748057_x_at) / RFU CD79A (11719716_a_at) / Fold change /veh CD79A (11719716_a_at) / RFU HIST1H1D (11736915_at) / Fold change /veh HIST1H1D (11736915_at) / RFU CASKIN2 (11723855_a_at) / Fold change /veh CASKIN2 (11723855_a_at) / RFU LOC730098 (11760151_x_at) / Fold change /veh LOC730098 (11760151_x_at) / RFU OR4N2 (11742367_at) / Fold change /veh OR4N2 (11742367_at) / RFU PRRT2 (11749266_a_at) / Fold change /veh PRRT2 (11749266_a_at) / RFU SNX32 (11753110_a_at) / Fold change /veh SNX32 (11753110_a_at) / RFU CDHR5 (11726645_a_at) / Fold change /veh CDHR5 (11726645_a_at) / RFU RCAN1 (11760418_a_at) / Fold change /veh RCAN1 (11760418_a_at) / RFU FAM167A (11723789_a_at) / Fold change /veh FAM167A (11723789_a_at) / RFU FAM26E (11764081_at) / Fold change /veh FAM26E (11764081_at) / RFU ISYNA1 (11749810_s_at) / Fold change /veh ISYNA1 (11749810_s_at) / RFU ACY1 (11761880_at) / Fold change /veh ACY1 (11761880_at) / RFU 11764098_at / Fold change /veh 11764098_at / RFU SAMD14 (11745864_x_at) / Fold change /veh SAMD14 (11745864_x_at) / RFU NPB (11741838_a_at) / Fold change /veh NPB (11741838_a_at) / RFU TMPRSS6 (11731388_a_at) / Fold change /veh TMPRSS6 (11731388_a_at) / RFU KRTAP10-2 (11738614_at) / Fold change /veh KRTAP10-2 (11738614_at) / RFU ARHGAP8 /// PRR5-ARHGAP8 (11727945_x_at) / Fold change /veh ARHGAP8 /// PRR5-ARHGAP8 (11727945_x_at) / RFU KRTAP5-7 /// NADSYN1 (11734609_at) / Fold change /veh KRTAP5-7 /// NADSYN1 (11734609_at) / RFU RASL12 (11751679_a_at) / Fold change /veh RASL12 (11751679_a_at) / RFU CDKN2B (11736163_a_at) / Fold change /veh CDKN2B (11736163_a_at) / RFU PRF1 (11729649_at) / Fold change /veh PRF1 (11729649_at) / RFU, ZNF638 /// ZNF638-IT1 / Fold change vs veh, ZNF638 /// ZNF638-IT1 / RFU, PANK3 / Fold change vs veh, PANK3 / RFU, SH3YL1 / Fold change vs veh, SH3YL1 / RFU, ZEB2 / Fold change vs veh, ZEB2 / RFU, NRIP1 / Fold change vs veh, NRIP1 / RFU, PTTG1IP / Fold change vs veh, PTTG1IP / RFU, CAPN2 / Fold change vs veh, CAPN2 / RFU, MED14 / Fold change vs veh, MED14 / RFU, SNORA58 / Fold change vs veh, SNORA58 / RFU, C1orf63 / Fold change vs veh, C1orf63 / RFU, LRRFIP1 / Fold change vs veh, LRRFIP1 / RFU, NDUFAF7 / Fold change vs veh, NDUFAF7 / RFU, SLC12A2 / Fold change vs veh, SLC12A2 / RFU, IBTK / Fold change vs veh, IBTK / RFU, ESF1 / Fold change vs veh, ESF1 / Fold change vs veh, TMEM50B / RFU, TAOK1 / Fold change vs veh, TAOK1 / RFU, ACBD3 / Fold change vs veh, ACBD3 / RFU, TMA16 / Fold change vs veh, TMA16 / RFU, RWDD3 / Fold change vs veh, RWDD3 / RFU, BCAT1 / Fold change vs veh, BCAT1 / RFU, EDEM3 / Fold change vs veh, EDEM3 / RFU, TMEM33 / Fold change vs veh, TMEM33 / RFU, WDR75 / Fold change vs veh, WDR75 / RFU, AHCTF1 / Fold change vs veh, AHCTF1 / RFU, TFRC / Fold change vs veh, TFRC / RFU, ZDHHC17 / Fold change vs veh, ZDHHC17 / RFU, NOM1 / Fold change vs veh, NOM1 / RFU, ARL8B / Fold change vs veh, ARL8B / RFU, ZBTB11 / Fold change vs veh, ZBTB11 / RFU, TAMM41 / Fold change vs veh, TAMM41 / RFU, KIAA1704 /// LOC100996395 / Fold change vs veh, KIAA1704 /// LOC100996395 / RFU, ING1 / Fold change vs veh, ING1 / RFU, TRMT61B / Fold change vs veh, TRMT61B / RFU, FUBP3 / Fold change vs veh, FUBP3 / RFU, TP53 / Fold change vs veh, TP53 / RFU, TNKS2 / Fold change vs veh, TNKS2 / RFU, ZFP14 / Fold change vs veh, ZFP14 / RFU, ACTR2 / Fold change vs veh, ACTR2 / RFU, PPP3R1 / Fold change vs veh, PPP3R1 / RFU, PIK3R1 / Fold change vs veh, PIK3R1 / RFU, HNRNPA1 / Fold change vs veh, HNRNPA1 / RFU, RNF170 / Fold change vs veh, RNF170 / RFU, ZNF28 / Fold change vs veh, ZNF28 / RFU, RNGTT / Fold change vs veh, RNGTT / RFU, OGT / Fold change vs veh, OGT / RFU, BRD1 / Fold change vs veh, BRD1 / RFU, MARS / Fold change vs veh, MARS / RFU, ZNF655 / Fold change vs veh, ZNF655 / RFU, FAHD1 / Fold change vs veh, FAHD1 / RFU, BDP1 / Fold change vs veh, BDP1 / RFU, LRRCC1 / Fold change vs veh, LRRCC1 / RFU, ARID1A / Fold change vs veh, ARID1A / RFU, ZNF146 / Fold change vs veh, ZNF146 / RFU, ZNF330 / Fold change vs veh, ZNF330 / RFU, GPN3 / Fold change vs veh, GPN3 / RFU, C9orf123 / Fold change vs veh, C9orf123 / RFU, N4BP2L2 / Fold change vs veh, N4BP2L2 / RFU, ARFIP1 / Fold change vs veh, ARFIP1 / RFU, FAM179B / Fold change vs veh, FAM179B / RFU, BCL10 / Fold change vs veh, BCL10 / RFU, UHRF1BP1L / Fold change vs veh, UHRF1BP1L / RFU, BET1 / Fold change vs veh, BET1 / RFU, CNOT2 / Fold change vs veh, CNOT2 / RFU, ZNF268 / Fold change vs veh, ZNF268 / Fold change vs veh, ZNF507 / RFU, DGCR2 / Fold change vs veh, DGCR2 / RFU, WDSUB1 / Fold change vs veh, WDSUB1 / Fold change vs veh, HSP90B1 /// MIR3652 / RFU, ADSS / Fold change vs veh, ADSS / RFU, GK / Fold change vs veh, GK / RFU, ZNF148 / Fold change vs veh, ZNF148 / RFU, TAF9 / Fold change vs veh, TAF9 / RFU, SLC1A5 / Fold change vs veh, SLC1A5 / RFU, SLMO2 / Fold change vs veh, SLMO2 / RFU, ABCC4 / Fold change vs veh, ABCC4 / RFU, LOC101060439 /// RAP1B / Fold change vs veh, LOC101060439 /// RAP1B / RFU, RFX7 / Fold change vs veh, RFX7 / RFU, GTPBP10 / Fold change vs veh, GTPBP10 / RFU, CNEP1R1 / Fold change vs veh, CNEP1R1 / RFU, BIVM-ERCC5 /// ERCC5 / Fold change vs veh, BIVM-ERCC5 /// ERCC5 / RFU, ILF3 / Fold change vs veh, ILF3 / RFU 11762660_at / Fold change /veh 11762660_at / RFU VCAN (11757783_s_at) / Fold change /veh VCAN (11757783_s_at) / RFU DDX43 (11728927_at) / Fold change /veh DDX43 (11728927_at) / RFU KRT8 (11758188_x_at) / Fold change /veh KRT8 (11758188_x_at) / RFU NKD1 (11759106_at) / Fold change /veh NKD1 (11759106_at) / RFU SRD5A1 (11742802_a_at) / Fold change /veh SRD5A1 (11742802_a_at) / RFU TPSAB1 /// TPSB2 (11721975_s_at) / Fold change /veh TPSAB1 /// TPSB2 (11721975_s_at) / RFU GSTM3 (11746129_a_at) / Fold change /veh GSTM3 (11746129_a_at) / RFU IL23R (11737362_x_at) / Fold change /veh IL23R (11737362_x_at) / RFU TMEM51 (11727254_a_at) / Fold change /veh TMEM51 (11727254_a_at) / RFU PIWIL2 (11732686_x_at) / Fold change /veh PIWIL2 (11732686_x_at) / RFU ORM1 (11744905_x_at) / Fold change /veh ORM1 (11744905_x_at) / RFU CCDC152 (11743942_at) / Fold change /veh CCDC152 (11743942_at) / RFU ECM1 (11717891_a_at) / Fold change /veh ECM1 (11717891_a_at) / RFU IL23R (11748794_a_at) / Fold change /veh IL23R (11748794_a_at) / RFU TNFAIP8L3 (11732012_x_at) / Fold change /veh TNFAIP8L3 (11732012_x_at) / RFU MBOAT4 (11741988_at) / Fold change /veh MBOAT4 (11741988_at) / RFU 11764193_at / Fold change /veh 11764193_at / RFU TMEM53 (11763286_at) / Fold change /veh TMEM53 (11763286_at) / RFU MAGEB2 (11727129_at) / Fold change /veh MAGEB2 (11727129_at) / RFU TMEM200A (11744735_a_at) / Fold change /veh TMEM200A (11744735_a_at) / RFU CCDC152 (11751479_a_at) / Fold change /veh CCDC152 (11751479_a_at) / RFU FAM211A (11726209_a_at) / Fold change /veh FAM211A (11726209_a_at) / RFU RGS16 (11746705_a_at) / Fold change /veh RGS16 (11746705_a_at) / RFU VCAN (11755009_s_at) / Fold change /veh VCAN (11755009_s_at) / RFU RHOB (11743442_s_at) / Fold change /veh RHOB (11743442_s_at) / RFU RGS16 (11720943_a_at) / Fold change /veh RGS16 (11720943_a_at) / RFU RGS16 (11720944_at) / Fold change /veh RGS16 (11720944_at) / RFU, VPS4B / Fold change vs veh, VPS4B / RFU, CREB1 / Fold change vs veh, CREB1 / RFU, DNAJC13 / Fold change vs veh, DNAJC13 / RFU, GNAQ / Fold change vs veh, GNAQ / RFU, CDK5R1 / Fold change vs veh, CDK5R1 / RFU, ZRANB3 / Fold change vs veh, ZRANB3 / RFU, CUL4A / Fold change vs veh, CUL4A / RFU, CCNY / Fold change vs veh, CCNY / RFU, UFL1 / Fold change vs veh, UFL1 / RFU, COG3 / Fold change vs veh, COG3 / RFU, DIAPH2 / Fold change vs veh, DIAPH2 / RFU, SKA2 / Fold change vs veh, SKA2 / RFU, AFF3 / Fold change vs veh, AFF3 / RFU, LMF1 / Fold change vs veh, LMF1 / RFU, IPO11 / Fold change vs veh, IPO11 / RFU, DFFB / Fold change vs veh, DFFB / RFU, FOXP1 / Fold change vs veh, FOXP1 / RFU, CARD8 / Fold change vs veh, CARD8 / RFU, STRN3 / Fold change vs veh, STRN3 / RFU, ADK / Fold change vs veh, ADK / RFU, RASSF2 / Fold change vs veh, RASSF2 / RFU, WIPF1 / Fold change vs veh, WIPF1 / RFU, LARP1B / Fold change vs veh, LARP1B / RFU, RASA1 / Fold change vs veh, RASA1 / RFU, RB1 / Fold change vs veh, RB1 / RFU, PPFIA1 / Fold change vs veh, PPFIA1 / RFU, MAT2A / Fold change vs veh, MAT2A / RFU, CCT5 / Fold change vs veh, CCT5 / RFU, WDR92 / Fold change vs veh, WDR92 / RFU, CUX1 / Fold change vs veh, CUX1 / RFU, TTC7A / Fold change vs veh, TTC7A / RFU, TMEM135 / Fold change vs veh, TMEM135 / RFU, DEPTOR / Fold change vs veh, DEPTOR / RFU, CPM / Fold change vs veh, CPM / RFU, DNAJB6 / Fold change vs veh, DNAJB6 / RFU, CACNA2D3 / Fold change vs veh, CACNA2D3 / RFU, DTX4 / Fold change vs veh, DTX4 / RFU, TFCP2 / Fold change vs veh, TFCP2 / RFU, GMCL1 /// GMCL1P1 / Fold change vs veh, GMCL1 /// GMCL1P1 / RFU, AEBP2 / Fold change vs veh, AEBP2 / RFU, SNHG1 /// SNORD22 /// SNORD25 /// SNORD26 /// SNORD27 /// SNORD28 /// SNORD29 /// SNORD31 / Fold change vs veh, SNHG1 /// SNORD22 /// SNORD25 /// SNORD26 /// SNORD27 /// SNORD28 /// SNORD29 /// SNORD31 / Fold change (Aza/veh), C12orf56 (ProbeSet 11735607_a_at) / Fold change (ACY-1035/veh), C12orf56 (ProbeSet 11735607_a_at) / Fold change (Aza/veh), FGFR1OP (ProbeSet 11751329_s_at) / Fold change (ACY-1035/veh), FGFR1OP (ProbeSet 11751329_s_at) / Fold change (Aza/veh), VPS36 (ProbeSet 11739960_a_at) / Fold change (ACY-1035/veh), VPS36 (ProbeSet 11739960_a_at) / RFU SYPL1 (11715823_x_at) / Fold change /veh SYPL1 (11715823_x_at) / RFU IGFBP7 (11715501_s_at) / Fold change /veh IGFBP7 (11715501_s_at) / RFU REEP3 (11722064_at) / Fold change /veh REEP3 (11722064_at) / RFU IGLL1 (11728026_x_at) / Fold change /veh IGLL1 (11728026_x_at): dose or concentration left out as unconfirmed
Settings: MV-4-11 cells, 48 hours

Compound: Nc1ncn([C@@H]2O[C@H](CO)[C@@H](O)[C@H]2O)c(=O)n1 [azacitidine]
- RFU PRB3 (11715151_x_at): 8.00 RFU
